Source: ChEMBL document CHEMBL1129258, “Synthesis and structure-activity relationships of 2-pyridones: a novel series of potent DNA gyrase inhibitors as antibacterial agents” (J Med Chem, 1996)
≈ marks a conversion by molar mass, not a printed value.

Assays:
[1] = (§1) In vitro antibacterial activity against gram-negative organism Pseudomonas aeruginosa 5007; format: functional; details: Pseudomonas aeruginosa; read-out: MIC
[2] = test system: Streptococcus pneumoniae; assay: In vivo efficacy against Strep. administered; format: functional; details: Streptococcus pneumoniae; read-out: ED50
[3] = test system: Streptococcus pyogenes; assay: In vitro antibacterial activity against gram-positive organism Streptococcus pyogenes EES61; format: functional; details: Streptococcus pyogenes; read-out: MIC
[4] = in vivo; details: rat, plasma, po, 5 mg/kg
[5] = In vitro antibacterial activity against gram-negative organism Pseudomonas aeruginosa DPHD-2862; format: functional; details: Pseudomonas aeruginosa; read-out: MIC
[6] = Maximum plasma concentration in rats after an oral dose of 5 mg/kg; details: rat
[7] = test system: Pseudomonas aeruginosa; assay: In vivo efficacy against Pseudomonas aeruginosa 5007 by orally administered.; format: functional; details: Pseudomonas aeruginosa, po; read-out: ED50
[8] = In vivo efficacy against Pseudomonas aeruginosa 5007 after subcutaneous administration; format: functional
[9] = test system: Streptococcus pneumoniae; assay: (§2) In vivo efficacy against Strep. administration; format: functional
[10] = in vivo; details: rat, po, 5 mg/kg
Description: Oral bioavailability in rat (dose 5 mg/kg)

[11] = test system: Pseudomonas aeruginosa; assay: In vivo efficacy against Pseudomonas aeruginosa 5007 following p.o. administration.
[12] = target: T1, DNA gyrase (Escherichia coli) (UniProt P0AES6+P0AES4); assay: In vitro antibacterial activity against gram-negative organism Klebsiella pneumoniae ATCC 8045; format: functional
[13] = target: T1, DNA gyrase (Escherichia coli); assay: In vitro antibacterial activity against gram-negative organism […] ATCC 13048; format: functional; details: Enterobacter aerogenes
[14] = target: T1, DNA gyrase (Escherichia coli); assay: In vitro antibacterial activity against gram-negative organism Prov. stuartii CMX-640; format: functional; details: Providencia stuartii
[15] = target: T1, DNA gyrase (Escherichia coli); assay: In vitro antibacterial against gram-negative organism Escherichia coli JUHL; format: functional; details: Escherichia coli K-12
[16] = target: T1, DNA gyrase (Escherichia coli); assay: In vivo efficacy against Escherichia coli JUHL after oral administration; format: functional, organism-based; details: Escherichia coli K-12
[17] = test system: Streptococcus pneumoniae; assay: as §2; format: functional; remark: listed apart in the source
[18] = test system: Staphylococcus aureus; assay: (§3) In vivo efficacy against Staphylococcus aureus NCTC-10649M after subcutaneous administration; format: functional; details: sc
[19] = in vivo; details: rat, plasma, po, 5 mg/kg; remark: listed apart in the source
[20] = target: T2, DNA gyrase (Staphylococcus aureus) (UniProt P0A0K8+P20831); assay: In vitro antibacterial activity against gram-positive organism Staphylococcus aureus NCTC-10649M; format: functional
[21] = target: T1, DNA gyrase (Escherichia coli); assay: In vivo efficacy against Escherichia coli JUHL by subcutaneous administration; format: functional, organism-based; details: Escherichia coli K-12
[22] = target: T1, DNA gyrase (Escherichia coli); assay: In vitro antibacterial activity against gram-positive organism Streptococcus bovis A-5169; format: functional; details: Streptococcus equinus
[23] = target: T2, DNA gyrase (Staphylococcus aureus); assay: In vitro antibacterial activity against gram-positive organism Staphylococcus aureus ATCC 6538p; format: functional
[24] = target: T2, DNA gyrase (Staphylococcus aureus); assay: (§4) In vivo efficacy against Staphylococcus aureus NCTC-10649M after oral administration; format: functional, organism-based
[25] = target: T1, DNA gyrase (Escherichia coli); assay: In vitro antibacterial activity against gram-positive organism Enterococcus faecium ATCC 8043; format: functional
[26] = target: T2, DNA gyrase (Staphylococcus aureus); assay: In vitro antibacterial activity against gram-positive organism Staphylococcus aureus 1775; format: functional
[27] = test system: Escherichia coli; assay: In vivo efficacy against Escherichia coli JUHL by orally administered.; format: functional; details: po
[28] = target: T1, DNA gyrase (Escherichia coli); details: Escherichia coli K-12
Description: Concentration which causes 50% of the gyrase (Escherichia coli H560)-mediated maximal DNA cleavage.

[29] = test system: Staphylococcus aureus; assay: In vivo efficacy against Staphylococcus aureus NCTC-10649M by subcutaneously administered.; format: functional
[30] = test system: Escherichia coli; assay: In vivo efficacy against Escherichia coli JUHL by subcutaneously administered.; format: functional; details: sc
[31] = test system: Pseudomonas aeruginosa; assay: In vivo efficacy against Pseudomonas aeruginosa 5007 by subcutaneously administered.; format: functional; details: sc
[32] = test system: Streptococcus pneumoniae; assay: In vivo efficacy against Stap. administered.; format: functional
[33] = test system: Staphylococcus aureus; assay: In vivo efficacy against Staphylococcus aureus NCTC-10649M by orally administered.; format: functional
[34] = test system: Pseudomonas aeruginosa; assay: as §1; format: functional
[35] = target: T2, DNA gyrase (Staphylococcus aureus); assay: as §3; format: functional, organism-based
[36] = test system: Staphylococcus aureus; assay: as §4; format: functional
[37] = test system: Enterococcus faecalis; assay: Inhibitory activity against enterococcus faecalis Van B; format: functional
[38] = test system: Enterococcus faecium; assay: Inhibitory activity against enterococcus faecium Van A; format: functional
[39] = Pseudomonas aeruginosa, sc, read-out: ED50

SMILES	MIC [1]	MIC [3]	MIC [5]	Cmax [6]	bioavailability [10]	ED50 [11]	MIC [12]	MIC [13]	MIC [14]	MIC [15]	MIC [20]	ED50 [21]	MIC [22]	MIC [23]	ED50 [24]	MIC [25]	MIC [26]	ED50 [35]	ED50 [9]	ED50 [17]	also measured
Cc1c(N2C[C@@H]3CCN[C@@H]3C2)c(F)cn2c(=O)c(C(=O)O)cc(C3CC3)c12 (stereo in doubt; 45o)	0.39 µg/mL (≈ 1.05 µM)	0.05 µg/mL (≈ 0.135 µM)	6.2 µg/mL (≈ 16.7 µM)	1130 ng/mL	62%																ED50 [2]: 4.5 mg/kg; half-life [4]: 4.1 h; ED50 [7]: 39.9 mg/kg; ED50 [8]: 6.4 mg/kg; ED50 ([9]; Streptococcus pneumoniae, read-out: ED50): 7.6 mg/kg
Cc1c(N2CCC(O)C2)c(F)cn2c(=O)c(C(=O)O)cc(C3CC3)c12 (stereo unspecified)	0.2 µg/mL (≈ 0.577 µM)	0.05 µg/mL (≈ 0.144 µM)	6.2 µg/mL (≈ 17.9 µM)	1420 ng/mL	50%	> 50 mg/kg	0.02 µg/mL (≈ 0.0577 µM)	0.02 µg/mL (≈ 0.0577 µM)	0.2 µg/mL (≈ 0.577 µM)	0.02 µg/mL (≈ 0.0577 µM)	0.005 µg/mL (≈ 0.0144 µM)	> 1 mg/kg	0.05 µg/mL (≈ 0.144 µM)	0.01 µg/mL (≈ 0.0289 µM)	15.2 mg/kg	0.05 µg/mL (≈ 0.144 µM)	0.2 µg/mL (≈ 0.577 µM)		41.5 mg/kg	7.4 mg/kg	ED50 [8, 39]: > 8 mg/kg; ED50 [16]: > 5 mg/kg; ED50 [18]: 11.3 mg/kg; half-life [19]: 5.4 h
Cc1c(N2CCC(N)C2)c(F)cn2c(=O)c(/C(O)=C/[N+](=O)[O-])cc(C3CC3)c12 (stereo unspecified)	0.39 µg/mL (≈ 1 µM)	0.2 µg/mL (≈ 0.515 µM)	6.2 µg/mL (≈ 16 µM)				0.02 µg/mL (≈ 0.0515 µM)	0.1 µg/mL (≈ 0.257 µM)	1.56 µg/mL (≈ 4.02 µM)	0.02 µg/mL (≈ 0.0515 µM)	0.1 µg/mL (≈ 0.257 µM)		0.2 µg/mL (≈ 0.515 µM)	0.05 µg/mL (≈ 0.129 µM)		0.39 µg/mL (≈ 1 µM)	6.2 µg/mL (≈ 16 µM)				ED50 [27]: > 10 mg/kg; CC50 [28]: 3 µg/mL (≈ 7.72 µM); ED50 [29]: > 12 mg/kg; ED50 [30]: > 5 mg/kg; ED50 [31]: 3.2 mg/kg; ED50 [32]: > 8 mg/kg; ED50 [33]: 25.2 mg/kg
Cc1c(N2CCC(N(C)C)C2)c(F)cn2c(=O)c(C(=O)O)cc(C3CC3)c12 (stereo unspecified)	0.39 µg/mL (≈ 1.04 µM)	0.1 µg/mL (≈ 0.268 µM)	12.5 µg/mL (≈ 33.5 µM)				0.02 µg/mL (≈ 0.0536 µM)	0.1 µg/mL (≈ 0.268 µM)	3.1 µg/mL (≈ 8.3 µM)	0.02 µg/mL (≈ 0.0536 µM)	0.05 µg/mL (≈ 0.134 µM)	1.9 mg/kg	0.39 µg/mL (≈ 1.04 µM)	0.05 µg/mL (≈ 0.134 µM)	25 mg/kg	0.1 µg/mL (≈ 0.268 µM)	0.78 µg/mL (≈ 2.09 µM)	4.7 mg/kg	44.1 mg/kg	> 25 mg/kg	ED50 [27]: > 10 mg/kg; MIC [37]: 0.12 µg/mL (≈ 0.321 µM); MIC [38]: 1 µg/mL (≈ 2.68 µM)

Now from value to compound, other results behind:

MIC [1]	MIC [3]	MIC [5]	Cmax [6]	bioavailability [10]	ED50 [11]	MIC [12]	MIC [13]	MIC [14]	MIC [15]	MIC [20]	ED50 [21]	MIC [22]	MIC [23]	ED50 [24]	MIC [25]	MIC [26]	ED50 [35]	SMILES	ED50 [9]	ED50 [17]	also measured
	0.01 µg/mL (≈ 0.0269 µM)	3.1 µg/mL (≈ 8.35 µM)				0.005 µg/mL (≈ 0.0135 µM)	0.05 µg/mL (≈ 0.135 µM)	0.39 µg/mL (≈ 1.05 µM)	0.01 µg/mL (≈ 0.0269 µM)	0.02 µg/mL (≈ 0.0538 µM)			0.002 µg/mL (≈ 0.00538 µM)		0.05 µg/mL (≈ 0.135 µM)	0.39 µg/mL (≈ 1.05 µM)	1.2 mg/kg	Cc1c(N2CC[C@@]3(C[C@@H]3N)C2)c(F)cn2c(=O)c(C(=O)O)cc(C3CC3)c12			MIC [34]: 0.39 µg/mL (≈ 1.05 µM); ED50 [36]: 6.3 mg/kg
0.39 µg/mL (≈ 1.07 µM)	0.39 µg/mL (≈ 1.07 µM)	6.2 µg/mL (≈ 16.9 µM)			17 mg/kg	0.05 µg/mL (≈ 0.137 µM)	0.1 µg/mL (≈ 0.273 µM)	3.1 µg/mL (≈ 8.47 µM)	0.05 µg/mL (≈ 0.137 µM)	0.2 µg/mL (≈ 0.547 µM)	1 mg/kg	0.78 µg/mL (≈ 2.13 µM)	0.2 µg/mL (≈ 0.547 µM)	5.7 mg/kg	0.39 µg/mL (≈ 1.07 µM)	6.2 µg/mL (≈ 16.9 µM)	1.6 mg/kg	NC1CCN(c2c(F)cn3c(=O)c(C(=O)O)cc(C4CC4)c3c2Cl)C1 (stereo unspecified)	11.1 mg/kg	8.5 mg/kg	ED50 [8, 39]: 3.3 mg/kg; ED50 [16]: 5.6 mg/kg; CC50 [28]: 0.31 µg/mL (≈ 0.847 µM)
